Tested on: HBV in HepAD38 cells
Details: Hepatitis B virus, HePAD38, 144 h, read-out: Cell activity

CN(C(=O)c1cnn2c1CN(C(=O)Nc1ccc(F)c(Cl)c1)CC2)C1(c2cccc(C(=O)O)c2)CC1 [Example 1, 3-(1-{N-methyl-5-[(3-chloro-4-fluorophenyl)carbamoyl]-4H,5H,6H,7H-pyrazolo[1,5-a]pyrazine-3-amido}cyclopropyl)benzoic acid]
EC50: < 1 µM

CN(C(=O)c1cnn2c1CN(C(=O)Nc1ccc(F)c(Cl)c1)CC2)C1(c2ccc(C(=O)O)cc2)CC1 [Example 2, 4-(1-{N-methyl-5-[(3-chloro-4-fluorophenyl)carbamoyl]-4H,5H,6H,7H-pyrazolo[1,5-a]pyrazine-3-amido}cyclopropyl)benzoic acid]
EC50: < 1 µM

COCC1(N(C)C(=O)c2noc3c2CN(C(=O)Nc2ccc(F)c(Cl)c2)CC3)CC1 [Example 3, N5-(3-chloro-4-fluorophenyl)-N3-[1-(methoxymethyl)cyclopropyl]-N3-methyl-4H,5H,6H,7H-[1,2]oxazolo[4,5-c]pyridine-3,5-dicarboxamide]
EC50: < 1 µM

CN1C(=O)c2c3c(nn2CC12CC2)CCN(C(=O)Nc1ccc(F)c(Cl)c1)C3 [Example 4, N-(3-chloro-4-fluorophenyl)-4′-methyl-3′-oxo-4′,7′,8′,12′-tetraazaspiro[cyclopropane-1,5′-tricyclo[7.4.0.0^2,7]tridecane]-1′,8′-diene-12′-carboxamide]
EC50: < 1 µM

O=C(O)c1cnc(C2(NC(=O)c3cnn4c3CN(C(=O)Nc3ccc(F)c(Cl)c3)CC4)CC2)nc1 [Example 5, 2-(1-{5-[(3-chloro-4-fluorophenyl)carbamoyl]-4H,5H,6H,7H-pyrazolo[1,5-a]pyrazine-3-amido}cyclopropyl)pyrimidine-5-carboxylic acid]
EC50: < 1 µM

O=C(O)c1ccc(C2(NC(=O)c3cnn4c3CN(C(=O)Nc3ccc(F)c(Cl)c3)CC4)CC2)nc1 [Example 6, 6-(1-{5-[(3-chloro-4-fluorophenyl)carbamoyl]-4H,5H,6H,7H-pyrazolo[1,5-a]pyrazine-3-amido}cyclopropyl)pyridine-3-carboxylic acid]
EC50: < 1 µM

C[C@@H](NC(=O)c1noc2c1CN(C(=O)Nc1ccc(F)c(Cl)c1)CC2)C(F)(F)F [Example 8, N5-(3-chloro-4-fluorophenyl)-N3-[(2R)-1,1,1-trifluoropropan-2-yl]-4H,5H,6H,7H-[1,2]oxazolo[4,5-c]pyridine-3,5-dicarboxamide]
EC50: < 1 µM

CC1Cn2ncc(C(=O)N(C)C3(c4ccc(C(=O)O)cc4)CC3)c2CN1C(=O)Nc1ccc(F)c(Cl)c1 (centres unmarked) [Example 9, 4-(1-{N-methyl-5-[(3-chloro-4-fluorophenyl)carbamoyl]-6-methyl-4H,5H,6H,7H-pyrazolo[1,5-a]pyrazine-3-amido}cyclopropyl)benzoic acid]
EC50: < 1 µM

CN1C(=O)c2c3c(nn2CC12CC2)CCN(C(=O)Nc1ccc(F)c(F)c1)C3 [Example 10, N-(3,4-difluorophenyl)-4′-methyl-3′-oxo-4′,7′,8′,12′-tetraazaspiro[cyclopropane-1,5′-tricyclo[7.4.0.0^2,^7]tridecane]-1′,8′-diene-12′-carboxamide]
EC50: < 1 µM

CN1C(=O)c2c3c(nn2CCC12CC2)CCN(C(=O)Nc1ccc(F)c(Cl)c1)C3 [Example 11, N-(3-chloro-4-fluorophenyl)-13′-methyl-14′-oxo-4′,8′,9′,13′-tetraazaspiro[cyclopropane-1,12′-tricyclo[7.5.0.0^2,^7]tetradecane]-1′,7′-diene-4′-carboxamide]
EC50: < 1 µM

CN(C(=O)c1[nH]nc2c1CN(C(=O)Nc1ccc(F)c(Cl)c1)CC2)C1(c2ncc(C(=O)O)cn2)CC1 [Example 12, 2-(1-{N-methyl-5-[(3-chloro-4-fluorophenyl)carbamoyl]-2H,4H,5H,6H,7H-pyrazolo[4,3-c]pyridine-3-amido}cyclopropyl)pyrimidine-5-carboxylic acid]
EC50: 1 to 10 µM

CN(C(=O)c1[nH]nc2c1CN(C(=O)Nc1ccc(F)c(Cl)c1)CC2)C1(c2ccc(C(=O)O)cc2)CC1 [Example 13, 4-(1-{N-methyl-5-[(3-chloro-4-fluorophenyl)carbamoyl]-2H,4H,5H,6H,7H-pyrazolo[4,3-c]pyridine-3-amido}cyclopropyl)benzoic acid]
EC50: < 100 µM

CC1Cn2cnc(C(=O)N(C)C3(c4cccc(C(=O)O)c4)CC3)c2CN1C(=O)Nc1ccc(F)c(Cl)c1 (centres unmarked) [Example 14, 3-(1-{N-methyl7-[(3-chloro-4-fluorophenyl)carbamoyl]-6-methyl-5H,6H,7H,8H-imidazo[1,5-a]pyrazine-1-amido}cyclopropyl)benzoic acid]
EC50: < 1 µM

CN(C(=O)c1cnn2c1CN(C(=O)Nc1ccc(F)c(Cl)c1)CC2)C1(c2nccc(C(=O)O)n2)CC1 [Example 15, 2-(1-{N-methyl-5-[(3-chloro-4-fluorophenyl)carbamoyl]-4H,5H,6H,7H-pyrazolo[1,5-a]pyrazine-3-amido}cyclopropyl)pyrimidine-4-carboxylic acid]
EC50: 1 to 10 µM

CN(C(=O)c1cnn2c1CN(C(=O)Nc1ccc(F)c(Cl)c1)CC2)C1(Cc2ccc(C(=O)O)cc2)CC1 [Example 16, 4-[(1-{N-methyl-5-[(3-chloro-4-fluorophenyl)carbamoyl]-4H,5H,6H,7H-pyrazolo[1,5-a]pyrazine-3-amido}cyclopropyl)methyl]benzoic acid]
EC50: < 1 µM

O=C(O)c1ccc(C2(NC(=O)c3cnn4c3CN(C(=O)Nc3ccc(F)c(Cl)c3)CC4)CC2)cc1 [Example 17, 4-(1-{5-[(3-chloro-4-fluorophenyl)carbamoyl]-4H,5H,6H,7H-pyrazolo[1,5-a]pyrazine-3-amido}cyclopropyl)benzoic acid]
EC50: < 100 µM

O=C(O)c1cccc(C2(NC(=O)c3cnn4c3CN(C(=O)Nc3ccc(F)c(Cl)c3)CC4)CC2)c1 [Example 18, 3-(1-{5-[(3-chloro-4-fluorophenyl)carbamoyl]-4H,5H,6H,7H-pyrazolo[1,5-a]pyrazine-3-amido}cyclopropyl)benzoic acid]
EC50: 1 to 10 µM

CN(C(=O)c1cnn2c1CN(C(=O)Nc1ccc(F)c(Cl)c1)CC2)C1(c2cc(C(=O)O)on2)CC1 [Example 27, 3-(1-{N-methyl-5-[(3-chloro-4-fluorophenyl)carbamoyl]-4H,5H,6H,7H-pyrazolo[1,5-a]pyrazine-3-amido}cyclopropyl)-1,2-oxazole-5-carboxylic acid #]
EC50: < 1 µM

CCN1C(=O)c2c3c(nn2CCC12CC2)CCN(C(=O)Nc1ccc(F)c(Cl)c1)C3 [Example 28, N-(3-chloro-4-fluorophenyl)-13′-ethyl-14′-oxo-4′,8′,9′,13′-tetraazaspiro[cyclopropane-1,12′-tricyclo[7.5.0.0^2,^7]tetradecane]-1′,7′-diene-4′-carboxamide]
EC50: < 1 µM

CN(C(=O)c1cnn2c1CN(C(=O)Nc1ccc(F)c(Cl)c1)CC2)C1(c2ccccc2C(=O)O)CC1 [Example 29, 2-(1-{N-methyl-5-[(3-chloro-4-fluorophenyl)carbamoyl]-4H,5H,6H,7H-pyrazolo[1,5-a]pyrazine-3-amido}cyclopropyl)benzoic acid]
EC50: < 1 µM

— US20220227785A1, “NOVEL PHENYL AND PYRIDYL UREAS ACTIVE AGAINST THE HEPATITIS B VIRUS (HBV)” (AICURIS GMBH & CO. KG, priority 2019, published 2022)
